The inhibition is the change of the read-out against control, counted positive when it falls. The term IC50 denotes the midpoint of a concentration-inhibition curve.

Experimental findings from US6559173B1, “3-(heteroarylamino)methylene-1,3-dihydro-2H-indol-2-ones as kinase inhibitors” (Allergan, Inc., priority 2001, dated 2003) are described below.

The test system of experiment [1] is VEGF induced increases in intracellular calcium levels in HUVEC (human umbilical vein endothelial cells). Nature of the experiment: VEGF Stimulated Ca++ signal assay (FLIPR). Format: cell-based. The following applies: VEGF 5 ng/mL; for IC50: 0.01 to 10.0 μM. Here is the method:
VEGF Stimulated Ca^++ Signal in vitro
Automated FLIPR (Fluorometric Imaging Plate Reader) technology was used to screen for inhibitors of VEGF induced increases in intracellular calcium levels in fluorescent dye loaded endothelial cells. HUVEC (human umbilical vein endothelial cells) (Clonetics) were seeded in 96-well fibronectin coated black-walled plates overnight @ 37° C./5%CO2. Cells were loaded with calcium indicator Fluo-4 for 45 minutes at 37° C. Cells were washed 4 times (Original Cell Wash, Labsystems) to remove extracellular dye. Test compounds were reconstituted in 100% DMSO and added to the cells to give a final DMSO concentration of 0.1%. For screening, cells were pre-incubated with test agents for 30 minutes, at a single concentration (10 μM) or at concentrations ranging from 0.01 to 10.0 μM followed by VEGF stimulation (5 ng/mL). Changes in fluorescence at 516 nm were measured simultaneously in all 96 wells using a cooled CCD camera. Data were generated by determining max-min fluorescence levels for unstimulated, stimulated, and drug treated samples. IC50 values for test compounds were calculated from % inhibition of VEGF stimulated responses in the absence of inhibitor.

In experiment [2] the target is T1, cytoplasmic domain of the human VEGF receptor (VEGFR-2) (Homo sapiens, UniProt P35968).
T1 construct: The cytoplasmic domain of the human VEGF receptor (VEGFR-2) was expressed as a Histidine-tagged fusion protein; His tag (Histidine-tagged fusion); made in house; host or cells: insect cells (engineered baculovirus)
T1 sequence (P35968 786-1356 limits assumed): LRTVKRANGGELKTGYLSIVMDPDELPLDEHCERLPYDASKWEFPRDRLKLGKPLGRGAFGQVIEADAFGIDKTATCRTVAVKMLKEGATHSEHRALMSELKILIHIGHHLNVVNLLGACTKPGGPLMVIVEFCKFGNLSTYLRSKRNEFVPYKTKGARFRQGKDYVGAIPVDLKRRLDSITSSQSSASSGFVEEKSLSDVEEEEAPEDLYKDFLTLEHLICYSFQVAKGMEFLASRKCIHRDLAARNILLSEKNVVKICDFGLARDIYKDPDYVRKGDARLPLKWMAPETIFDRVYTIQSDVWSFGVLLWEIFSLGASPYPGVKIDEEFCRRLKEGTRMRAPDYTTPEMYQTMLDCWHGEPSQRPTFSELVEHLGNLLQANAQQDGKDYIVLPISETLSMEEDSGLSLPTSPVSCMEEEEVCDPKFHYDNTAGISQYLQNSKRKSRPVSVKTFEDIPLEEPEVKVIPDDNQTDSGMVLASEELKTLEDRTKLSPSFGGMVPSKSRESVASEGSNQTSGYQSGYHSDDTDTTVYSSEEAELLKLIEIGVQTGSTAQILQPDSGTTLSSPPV
The experiment is described as follows: KDR Assay. Format: biochemical. Conditions: His-VEGFR-2, 3.6 μM ATP, poly-Glu-Tyr (4:1). As for the experimental part: The cytoplasmic domain of the human VEGF receptor (VEGFR-2) was expressed as a Histidine-tagged fusion protein following infection of insect cells using an engineered baculovirus. His-VEGFR-2 was purified to homogeneity, as determined by SDS-PAGE, using nickel resin chromatography. Kinase assays were performed in 96 well microtiter plates that were coated overnight with 30 μg of poly-Glu-Tyr (4:1) in 10 mM Phosphate Buffered Saline (PBS), pH 7.2-7.4. The plates were incubated with 1% BSA and then washed four times with PBS prior to starting the reaction. Reactions were carried out in 120 μL reaction volumes containing 3.6 μM ATP in kinase buffer (50 mM Hepes buffer pH 7.4, 20 mM MgCl2, 0.1 mM MnCl2 and 0.2 mM Na3VO4). Test compounds were reconstituted in 100% DMSO and added to the reaction to give a final DMSO concentration of 5%. Reactions were initiated by the addition 0.5 ng of purified protein. Following a ten minute incubation at 25° C., the reactions were washed four times with PBS containing 0.05% Tween-20. 100 μl of a monoclonal anti-phosphotyrosine antibody-peroxidase conjugate was diluted 1:10000 in PBS-Tween-20 and added to the wells for 30 minutes. Following four washes with PBS-Tween-20, 100 μl of 0-Phenylenediamine Dihydrochloride in Phosphate-citrate buffer, containing urea hydrogen peroxide, was added to the wells for 7 minutes as a colorimetric substrate for the peroxidase. The reaction was terminated by the addition of 100 μl of 2.5N H2SO4 to each well and read using a microplate ELISA reader set at 492 nm. IC50 values for compound inhibition were calculated directly from graphs of optical density (arbitrary units) versus compound concentration following subtraction of blank values.

The mark [3] stands for this setting: Homo sapiens, 10 μM, 30 min pre-incubation.

For the compound `Cc1cccc2c1C(=CNc1n[nH]c(-c3ccccc3)c1Br)C(=O)N2` [Example 12, 3-[(4-Bromo-5-phenyl-1H-pyrazol-3-ylamino)-methylene]-4-methyl-1,3-dihydro-indol-2-one], the inhibition at 10 µM in experiment [1] (setting [3]) was -12.9%.

For `CCOc1ccc(-c2cc(NC=C3C(=O)Nc4ccccc43)[nH]n2)cc1` [Example 38, 3-{[5-(4-Ethoxy-phenyl)-2H-pyrazol-3-ylamino]-methylene}-1,3-dihydro-indol-2-one], the inhibition at 10 µM in experiment [1] (setting [3]) worked out at 70%. Further, the IC50 in experiment [1] (Homo sapiens) is 6750 nM; in experiment [2], 9900 nM.

For `O=C1Nc2ccccc2C1=CNc1ccon1` [Example 43, 3-(Isoxazol-3-ylaminomethylene)-1,3-dihydro-indol-2-one], in experiment [1] (setting [3]), the inhibition at 10 µM came out at 62.4%. The IC50 worked out at 7560 nM in experiment [1] (Homo sapiens) and 2320 nM in experiment [2].

In the case of `O=C1Nc2ccc(F)cc2C1=CNc1cc(-c2ccco2)[nH]n1` [Example 27, 5-Fluoro-3-[(5-furan-2-yl-1H-pyrazol-3-ylamino)-methylene]-1,3-dihydro-indol-2-one], the half-inhibitory concentration (IC50) was 1050 nM in experiment [1], ≤ 1000 nM in experiment [1] (Homo sapiens) and 530 nM in experiment [2]. The inhibition at 10 µM in experiment [1] (setting [3]) worked out at 98.6%.

On to `Cc1ccc(-c2cc(NC=C3C(=O)Nc4ccccc43)[nH]n2)c(C)c1` [Example 34, 3-{[5-(2,4-Dimethyl-phenyl)2H-pyrazol-3-ylamino]-methylene}-1,3-dihydro-indol-2-one], for which the inhibition at 10 µM in experiment [1] (setting [3]) amounted to 58.8%. The IC50 in experiment [1] (Homo sapiens) came out at 7640 nM.

Take `O=C1Nc2ccccc2C1=CNc1cc(-c2ccco2)[nH]n1` [Example 4, 3-[(5-Furan-2-yl-1H-pyrazol-3-ylamino)-methylene]-1,3-dihydro-indol-2-one]: the IC50 in experiment [1] is 700 nM; in experiment [1] (Homo sapiens), ≤ 1000 nM; in experiment [2], 850 nM. Besides, in experiment [1] (setting [3]), the inhibition at 10 µM is 92.6%.

For `Cc1onc(NC=C2C(=O)Nc3ccccc32)c1Br` [Example 42, 3-[(4-Bromo-5-methyl-isoxazol-3-ylamino)-methylene]-1,3-dihydro-indol-2-one], the inhibition at 10 µM in experiment [1] (setting [3]) was found to be 0.3%. In experiment [2], the IC50 is 1910 nM.

For `O=C1Nc2ccccc2C1=CNc1n[nH]cc1Br` [Example 21, 3-[(4-Bromo-1H-pyrazol-3-ylamino)-methylene]-1,3-dihydro-indol-2-one], the inhibition at 10 µM in experiment [1] (setting [3]) amounted to 32.1%.

Consider `Cc1cc(NC=C2C(=O)Nc3ccccc32)no1` [Example 44, 3-[(5-Methyl-isoxazol-3-ylamino)-methylene]-1,3-dihydro-indol-2-one], for which the inhibition at 10 µM in experiment [1] (setting [3]) turned out to be 97%. Besides, the figures for the IC50 in experiment [1] (Homo sapiens) and in experiment [2] were 2550 nM and 650 nM, respectively.

Consider `N#Cc1c[nH]nc1NC=C1C(=O)Nc2ccccc21` [Example 20, 3-[(2-Oxo-1,2-dihydro-indol-3-ylidenemethyl)-amino]-1H-pyrazole-4-carbonitrile], for which, in experiment [1] (setting [3]), the inhibition at 10 µM came out at 35.8%.

As for `Cc1cc(NC=C2C(=O)Nc3ccccc32)n[nH]1` [Example 23, 3-[(5-Methyl-1H-pyrazol-3-ylamino)-methylene]-1,3-dihydro-indol-2-one], the IC50 was 900 nM in experiment [1], ≤ 1000 nM in experiment [1] (Homo sapiens) and 370 nM in experiment [2]. In addition, the inhibition at 10 µM in experiment [1] (setting [3]) was found to be 94.7%.

On to `Cc1cccc(Cc2cc(NC=C3C(=O)Nc4ccccc43)[nH]n2)c1` [Example 39, 3-{[5-(3-Methyl-benzyl)-2H-pyrazol-3-ylamino]-methylene}-1,3-dihydro-indol-2-one], for which the inhibition at 10 µM in experiment [1] (setting [3]) is -12.6%.

Regarding `O=C1Nc2ccccc2C1=CNc1n[nH]cc1C(=O)O` [Example 19, 3-[(2-Oxo-1,2-dihydro-indol-3-ylidenemethyl)-amino]-1H-pyrazole-4-carboxylic acid], the inhibition at 10 µM in experiment [1] (setting [3]) was -0.89%.

Turning to `O=C1Nc2ccccc2C1=CNc1cc(-c2cc(OCc3ccccc3)cc(OCc3ccccc3)c2)n[nH]1` [Example 31, 3-{[5-(3,5-Bis-benzyloxy-phenyl)-2H-pyrazol-3-ylamino]-methylene}-1,3-dihydro-indol-2-one], in experiment [1] (setting [3]), the inhibition at 10 µM was -12.9%.

For the compound `O=C1Nc2cc(F)ccc2C1=CNc1cc(-c2ccco2)[nH]n1` [Example 50, 6-Fluoro-3-[(5-furan-2-yl-1H-pyrazol-3-ylamino)-methylene]-1,3-dihydro-indol-2-one], the IC50 in experiment [1] was 590 nM; in experiment [1] (Homo sapiens), ≤ 1000 nM; in experiment [2], 980 nM.

As for `COc1ccc(-c2cc(NC=C3C(=O)Nc4ccccc43)[nH]n2)cc1` [Example 30, 3-{[5-(4-Methoxy-phenyl)2H-pyrazol-3-ylamino]-methylene}-1,3-dihydro-indol-2-one], the inhibition at 10 µM in experiment [1] (setting [3]) came to 12.3%.

For `CCn1nccc1NC=C1C(=O)Nc2ccccc21` [Example 46, 3-[(2-Ethyl-2H-pyrazol-3-ylamino)-methylene]-1,3-dihydro-indol-2-one], the inhibition at 10 µM in experiment [1] (setting [3]) turned out to be 42.4%. The IC50 in experiment [2] was determined as 11600 nM.

In the case of `O=C1Nc2ccccc2C1=CNc1cc(Cc2ccccc2)n[nH]1` [Example 40, 3-[(5-Benzyl-2H-pyrazol-3-ylamino)-methylene]-1,3-dihydro-indol-2-one], in experiment [1] (setting [3]), the inhibition at 10 µM is -0.03%.

Compound `Cc1cc(NC=C2C(=O)Nc3cc(F)ccc32)n[nH]1` [Example 49, 6-Fluoro-3-[(5-methyl-1H-pyrazol-3-ylamino)-methylene]-1,3-dihydro-indol-2-one] registered an IC50 in experiment [2] of 570 nM.

For the compound `CSc1[nH]nc(NC=C2C(=O)Nc3ccccc32)c1C#N` [Example 18, 5-Methylsulfanyl-3-[(2-oxo-1,2-dihydro-indol-3-ylidenemethyl)-amino]-1H-pyrazole-4-carbonitrile], the inhibition at 10 µM in experiment [1] (setting [3]) came out at 14.1%.

For the compound `COC(=O)c1ccc(-c2cc(NC=C3C(=O)Nc4ccccc43)n[nH]2)cc1` [Example 24, 4-{5-[(2-Oxo-1,2-dihydro-indol-3-ylidenemethyl)-amino]-2H-pyrazol-3-}-benzoic acid methyl ester], the inhibition at 10 µM in experiment [1] (setting [3]) was 56.9%. Further, the IC50 in experiment [1] (Homo sapiens) was ≥ 10000 nM.

Turning to `O=C1Nc2ccccc2C1=CNc1n[nH]c(-c2ccccc2)c1Br` [Example 11, 3-[(4-Bromo-5-phenyl-1H-pyrazol-3-ylamino)-methylene]-1,3-dihydro-indol-2-one], in experiment [1] (setting [3]), the inhibition at 10 µM was determined as 23.4%.

In the case of `CCOC(=O)c1c[nH]nc1NC=C1C(=O)Nc2ccccc21` [Example 17, 3-[(2-Oxo-1,2-dihydro-indol-3-ylidenemethyl)-amino]-1H-pyrazole-4-carboxylic acid ethyl ester], in experiment [1] (setting [3]), the inhibition at 10 µM was determined as 27.2%.

For the compound `O=C1Nc2ccc(Cl)cc2C1=CNc1n[nH]c(-c2ccccc2)c1Br` [Example 13, 3-[(4-Bromo-5-phenyl-1H-pyrazol-3-ylamino)-methylene]-5chloro-1,3-dihydro-indol-2-one], the inhibition at 10 µM in experiment [1] (setting [3]) is -19.1%.

With “3-[(1-H-Pyrazol-3 ylamino)methylene]-1,3-dihydro-indol-2-one [Example 1]”, the “VEGF Stimulated Ca++ signal assay % inhibition @10 μM” value in experiment [1] (10 μM, 30 min pre-incubation) is on record as 92.8%. The 50% inhibitory concentration (IC50) in experiment [1] amounted to 3000 nM.

Regarding `Cc1cc(C)c2c(NC=C3C(=O)Nc4ccccc43)n[nH]c2n1` [Example 25, 3-[(4,6-Dimethyl-1H-pyrazolo[3,4-b]pyridin-3-ylamino)-methylene]-1,3-dihydro-indol-2-one], the inhibition at 10 µM in experiment [1] (setting [3]) turned out to be 15.1%.

For `COc1ccc(-c2c(C)n[nH]c2NC=C2C(=O)Nc3ccccc32)cc1OC` [Example 16, 3-{[4-(3,4-Dimethoxy-phenyl)-5-methyl-2H-pyrazol-3-ylamino]-methylene}-1,3-dihydro-indol-2-one], in experiment [1] (setting [3]), the inhibition at 10 µM was -1.47%.

Regarding `O=C1Nc2ccc(Cl)cc2C1=CNc1cc(-c2ccccc2)[nH]n1` [Example 14, 5-Chloro-3-[(5-phenyl-1H-pyrazol-3-ylamino)-methylene]-1,3-dihydro-indol-2-one], in experiment [1] (setting [3]), the inhibition at 10 µM was 27.4%.

Turning to `O=C1Nc2ccccc2C1=CNc1n[nH]c2cccc(F)c12` [Example 15, 3-[(4-Fluoro-1H-indazol-3-ylamino)-methylene]-1,3-dihydro-indol-2-one], the inhibition at 10 µM in experiment [1] (setting [3]) amounted to 6.16%.
